In patent US6458585B1, “Cytokine-free culture of dendritic cells” (Nexell Therapeutics Inc., priority 1996, dated 2002):

Tests used:
Type in all cases: cell-based, human
Bulk PBMNC [1] = experiment: S100+ cells in bulk PBMNC cultures with non-cytokine additives; conditions: day 7; average
Experimental: (§1) Immunocytochemical staining: PBS (phosphate buffered saline) was made by dissolving 5 PBS tablets into 1000 ml millipore water. Cytospin slides were soaked in PBS. Endogenous peroxidase activity was blocked by treating slides with hydrogen peroxide/PBS (2 ml 30% H2O2+30 ml PBS) for 10 min. Slides were rinsed with PBS one time. Non-specific binding sites were blocked by incubating with normal serum matching source of secondary antibody (i.e. if secondary antibody is biotinylated goat-anti-mouse, used normal goat serum) at room temp. for 15 min. in a humidified environment. Excess serum was shaken from slides and placed 100 ul of primary antibody on slide, making sure cells are covered with liquid and incubated in humidified environment, room temp, for one hour. Negative control slides were incubated with normal serum for this hour. Slides were rinsed 3 times with PBS. Slides were incubated with biotinylated antibody reactive against the primary antibody (i.e. if primary antibody is mouse-anti-human, use a biotinylated goat-anti-mouse antibody) for 1 hour in humidity. Slides were rinsed 3 times with PBS. Slides were incubated with streptavidin-peroxidase, 2 drops/slide, for 30 min. in humidity. Slides were rinsed 3 times with PBS.
(§2) Chromagen solution was made with 5 ml millipore water+2 drops of chromagen buffer+1 drop of concentrated chromagen+1 drop of substrate, and 4-5 drops were added to each slide. […] Slides were counterstained with hematoxylin for about 5 min, or until cell nuclei were stained purple. Cells were rinsed with tap water and allowed to air dry. Slides were covered with crystal mount and oven dried at 80 degrees for 15 min. Slides were allowed to cool, then coversliped with mounting medium.
(§3) Culture of Bulk PBMNC: PBMNC cells were cultured in X-VIVO 15™ supplemented with 2 mM L- glutamine. Cultures were initiated at 5×^05 cells/ml in PL2417 gas-permeable containers (20 ml). GM-CSF and IL-4 were added to the cultures at final concentrations of 50 ng/ml and 1000 U/ml or non-cytokine additives such as Vitamin D3 at 2.5 uM, Vitamin E at 0.1%, Linoleic Acid at 5 ug/ml, or Ca++ Ionophore at 10 mM. Addition and subtraction of cells, media, and growth factors to and from PL2417 gas-permeable containers was accomplished by spiking a Sampling Site Coupler into the sample port of the container followed by use of syringes and needles. Cells were cultured in a 5% CO2, ambient O2, 37° C. humidified incubator for 7 days.
(§4) Cytospin slide preparation, Wright-Geimsa and immunohistochemical staining of the cultured cells were conducted as described in Example 1 and 2 above. Mixed lymphocyte reactions (MLR's) were setup using T cells (responders) and dendritic cell enriched cultures (stimulators) from bulk PBMNC cultures, as described above in Example 1.
The S100 protein is a nerve cell protein that has been associated with dendritic cells. In Table 47, at day 7 of culture, the highest percent of S100+ cells was present in the GM-CSF/IL-4 culture (13%).

Bulk PBMNC [2] = experiment: Morphologically identified dendritic cells in bulk PBMNC cultures with non-cytokine additives
Experimental: (§5) Cytofunnels were attached to microscope slides. 50,000 to 100,000 cells were removed from each culture and resuspended in approximately 100 to 200 ul of PBS-CMF. Slides were placed in the Cytospin® centrifuge and spun at 100 rpm for 4 min. Cytofunnels were removed from the slides and the slides were air dried for 1 minute. Ten drops of Wright-Geimsa stain were placed onto each slide and allowed to fix for 1 to 2 minutes. Ten drops of water were added to each slide and allowed to sit for 2 to 4 minutes. The slides were rinsed and air dried.
(§6) Reading of Cytospin Slides: Slides were read under phase contrast microscopy, 40× and 60× oil magnification. One hundred cells were identified and characterized morphologically as either dendritic cells or non-dendritic cells (lymphocytes and monocyte, or CD34+-derived cells in those cases). Digital images were taken using a color monitor and color video printer.
as §3, §4

adherent PBMNC [3] = experiment: S100 immunohistochemistry of plastic adherent cells cultured with non-cytokine additives; conditions: for percentage of S100+ cells: without GM-CSF added to additives
Experimental: as §1, with “Endogenous peroxidase activity was blocked by treating slides with hydrogen peroxide/PBS (2 ml 30% H2O2+30 ml PBS) for 10 min.” left out
as §2
(§7) Enrichment and Culture of Adherent Cells Using Polystyrene Tissue Culture Plates: PBMNC were resuspended in culture media (X-VIVO 15™+10% autologous serum) at 2×10^6 cells/ml. Cells were placed into 48 well polystyrene tissue culture plates […] and incubated for 2 hours in a 5% CO2, ambient O2, 37° C. humidified incubator. Non-adherent cells were removed from the plates then wells were rinsed with X-VIVO 15™ containing no serum. Cells remaining in the wells were adherent cells. These cells were cultured by adding 2 ml of X-VIVO 15™ to each well plus GM-CSF and IL-4 at final concentrations of 50 ng/ml and 1000 U/ml or the following: cAMP at 0.5 mM, dibutyryl cAMP at 0.1 mM, NaF at 0.25 mM, theophylline at 0.5 mM, PGE at 0.1 mM, Vitamin D3 at 2.5 uM, Vitamin E at 0.1%, Retinoic Acid at 10^−6 M, PMA at 1 pM, Linoleic Acid at 5 ug/ml, or Ca^++ Ionophore at 10 mM. Furthermore, cells were also cultured with the above non-cytokine additives plus GM-CSF at 50 ng/ml. Cells were cultured in a 5% CO2, ambient O2, 37° C. humidified incubator for 7 days.
as §4
(§8) Results: In the set of experiments using plastic adherent cells grown in polystyrene tissue culture plates, a Day 0 analysis of the cells was not performed. However, these cultures were analyzed for the presence of DC on days 4 and 7. Analysis perfomed were cell counts, viability via propidium iodide, morphology under Wright-Geimsa staining, and immunohistochemical staining using an anti-S100 antibody.

Bulk PBMNC [4] = experiment: Flow cytometry phenotype of bulk PBMNC cultures with non-cytokine additives; conditions: Day 7
Experimental: as §3
Cultured cells were phenotyped as described in Example 1 above for the following markers: […]

T cells = experiment: Allogeneic MLR with bulk PBMNC cultures grown with non-cytokine additives
Experimental: MLR's were setup using T cells as responders and dendritic cell enriched cultures as antigen presenters. Sheep red blood cells were prepared and used to erythrocyte rosette T cells from a MNC preparation as described in “Current Protocols in Immunology”, John Wiley & Sons Inc, 1995. Vol. 2, 7.2.1-7.2.4. Erythrocyte+(E+ ) T cells were resuspended to 1×10^6 cells/ml in RPMI 1640/10% FCS. Dendritic cells were resuspended to 1×10^6 cells/ml in RPMI 1640/10% FCS and mitomycin C was added at 25 ug/ml to inhibit proliferation. The tubes were incubated at 37° C. for 30 min. then washed 3 times with PBS-CMF/1% HA. […] […] The appropriate control wells were also prepared. Plates were incubated for 4 or 5 days at 37° C.
Each well was pulsed with 1 uCi of ^3H-thymidine in RPMI 1640/10% FCS. Plates were incubated overnight at 37° C.
Plates were harvested onto glass fiber filter strips using a cell harvester. Discs were placed into scintillation vials containing scintillation cocktail and samples were counted using a beta radiation counter.
as §4
The functional capacity of cultured cells to induce T cell proliferation was measured in an allogeneic MLR. […] At the greatest ratio of 1:100, the differences in capacity to induce T cell proliferation is marginal between the GM-CSF/IL-4 cultured cells and the non-cytofine additive cultured cells.

adherent PBMNC [5] = experiment: DC morphology (Wright-Geimsa) of plastic adherent cells cultured with non-cytokine additives
Experimental: as §5, §6, §7, §4, §8

adherent PBMNC [6] = experiment: Cell counts and viability of plastic adherent cells cultured with non-cytokine additives in polystyrene plates; design: % VIABLE: concentration or dose not given beside the values; conditions: for % VIABLE: propidium iodide
Experimental: Viability Determination: Prior to acquisition, 5 ul propidium iodide (PI) was added to each tube for use as a viability check. The cells were vortexed and acquired within 10 min of PI addition.
as §7, §8

SMILES: Cc1c(C)c2c(c(C)c1O)CCC(C)(CCCC(C)CCCC(C)CCCC(C)C)O2 (mixture of isomers) [Vitamin E]
- percent of S100+ cells (Bulk PBMNC [1]): equivalent average percentages
- average total number of morphologically identified DC projected in culture (Bulk PBMNC [2]; day 7): lowest total number
- percentage of S100+ cells (adherent PBMNC [3]; day 4): 19%

SMILES: CNc1ccc2oc(CC3OC4(CCC3C)OC(C(C)C(=O)c3ccc[nH]3)C(C)CC4C)nc2c1C(=O)O (centres unmarked) [Ca ++ lono]
- Percent of Phenotype in Culture: CD1a-PE (Bulk PBMNC [4]): 0.04%
- Percent of Phenotype in Culture: CD14-PE (Bulk PBMNC [4]): 0.26%
- Percent of Phenotype in Culture: CD80-PE (Bulk PBMNC [4]): 2.21%
- Percent of Phenotype in Culture: CD86-PE (Bulk PBMNC [4]): 2.32%

SMILES: CNc1ccc2oc(CC3OC4(CCC3C)OC(C(C)C(=O)c3ccc[nH]3)C(C)CC4C)nc2c1C(=O)O (centres unmarked) [Ca++ Iono]
- % DC (Bulk PBMNC [2]; Day 7): 7.00%
- TOTAL # OF DC (Bulk PBMNC [2]; Day 7, projected in culture): 5.74E+05
- Allogeneic MLR. Increase Over Background Proliferation (T cells; Day 7, Cell Culture:T cell Ratio 1:1): 4.8
- Allogeneic MLR. Increase Over Background Proliferation (T cells; Day 7, Cell Culture:T cell Ratio 1:10): 1.8
- Allogeneic MLR. Increase Over Background Proliferation (T cells; Day 7, Cell Culture:T cell Ratio 1:100): 0.9

SMILES: CNc1ccc2oc(C[C@H]3O[C@@]4(CC[C@H]3C)O[C@H]([C@H](C)C(=O)c3ccc[nH]3)[C@H](C)C[C@H]4C)nc2c1C(=O)O [Ca^++ Ionophore, A23187]
- percent of S100+ cells (Bulk PBMNC [1]): equivalent average percentages
- fold fewer DC (average total number projected in culture) than GM-CSF/IL-4 cultures (Bulk PBMNC [2]; day 7): approximately 4 fold
- percentage of S100+ cells (adherent PBMNC [3]; day 4): 17%
- percentage of S100+ cells (adherent PBMNC [3]; day 7): next highest percentages
- morphologically identified DC (adherent PBMNC [5]; day 7, without GM-CSF added to additives): next highest percentages

SMILES: CCCCC/C=C\C/C=C\CCCCCCCC(=O)O [Linoleic Add]
- Percent of Phenotype in Culture: CD1a-PE (Bulk PBMNC [4]): 0.08%
- Percent of Phenotype in Culture: CD14-PE (Bulk PBMNC [4]): 0.46%
- Percent of Phenotype in Culture: CD80-PE (Bulk PBMNC [4]): 2.61%
- Percent of Phenotype in Culture: CD86-PE (Bulk PBMNC [4]): 2.72%

SMILES: C=C1CC[C@H](O)C/C1=C/C=C1\CCC[C@]2(C)[C@@H]([C@H](C)CCCC(C)C)CC[C@@H]12 [Vitamin D3]
- percent of S100+ cells (Bulk PBMNC [1]): lowest average percent
- fold fewer DC (average total number projected in culture) than GM-CSF/IL-4 cultures (Bulk PBMNC [2]; day 7): approximately 4 fold
- percentages of S100+ cells (adherent PBMNC [3]; day 7, additive added to GM-CSF 50 ng/ml): greatest percentages of S100+ cells

SMILES: CCCC(=O)Nc1ncnc2c1ncn2[C@@H]1O[C@@H]2COP(=O)(O)O[C@H]2[C@H]1OC(=O)CCC [dibutyryl cAMP, Dibutyryl cAMP]
- TOTAL CELLS (adherent PBMNC [6]; Day 4, with GM-CSF present): 1.74E + 05
- % VIABLE (adherent PBMNC [6]; Day 4, with GM-CSF present): 85.86%
- TOTAL CELLS (adherent PBMNC [6]; Day 4, without GM-CSF): 2.18E + 05
- % VIABLE (adherent PBMNC [6]; Day 4, without GM-CSF): 71.00%
- TOTAL CELLS (adherent PBMNC [6]; Day 7, with GM-CSF present): 1.37E + 05
- % VIABLE (adherent PBMNC [6]; Day 7, with GM-CSF present): 61.25%
- TOTAL CELLS (adherent PBMNC [6]; Day 7, without GM-CSF): 2.59E + 05
- % VIABLE (adherent PBMNC [6]; Day 7, without GM-CSF): 58.87%
- % S100+ (adherent PBMNC [3]; Day 4, with GM-CSF present): 17.00%
- % S100+ (adherent PBMNC [3]; Day 4, without GM-CSF): 6.00%
- % S100+ (adherent PBMNC [3]; Day 7, with GM-CSF present): 14.00%
- % S100+ (adherent PBMNC [3]; Day 7, without GM-CSF): 8.00%
- % DC (adherent PBMNC [5]; Day 4, with GM-CSF present): 2.50%
- % DC (adherent PBMNC [5]; Day 4, without GM-CSF): 0.00%
- % DC (adherent PBMNC [5]; Day 7, with GM-CSF present): 2.50%
- % DC (adherent PBMNC [5]; Day 7, without GM-CSF): 0.00%

SMILES: Cn1c(=O)c2[nH]cnc2n(C)c1=O [theophylline, Theophylline]
- TOTAL CELLS (adherent PBMNC [6]; Day 4, with GM-CSF present): 1.34E + 05
- % VIABLE (adherent PBMNC [6]; Day 4, with GM-CSF present): 88.75%
- TOTAL CELLS (adherent PBMNC [6]; Day 4, without GM-CSF): 2.12E + 05
- % VIABLE (adherent PBMNC [6]; Day 4, without GM-CSF): 75.27%
- TOTAL CELLS (adherent PBMNC [6]; Day 7, with GM-CSF present): 9.65E + 05
- % VIABLE (adherent PBMNC [6]; Day 7, with GM-CSF present): 59.55%
- TOTAL CELLS (adherent PBMNC [6]; Day 7, without GM-CSF): 1.81E + 05
- % VIABLE (adherent PBMNC [6]; Day 7, without GM-CSF): 56.49%
- % S100+ (adherent PBMNC [3]; Day 4, with GM-CSF present): 8.50%
- % S100+ (adherent PBMNC [3]; Day 4, without GM-CSF): 6.00%
- % S100+ (adherent PBMNC [3]; Day 7, with GM-CSF present): 11.00%
- % S100+ (adherent PBMNC [3]; Day 7, without GM-CSF): 7.50%
- % DC (adherent PBMNC [5]; Day 4, with GM-CSF present): 6.50%
- % DC (adherent PBMNC [5]; Day 4, without GM-CSF): 0.50%
- % DC (adherent PBMNC [5]; Day 7, with GM-CSF present): 3.50%
- % DC (adherent PBMNC [5]; Day 7, without GM-CSF): 0.00%
